According to US20100099670A1, “Benzoquinazoline derivatives” (priority 2007, published 2010):

molecular target: T1, human PcaR (Homo sapiens, UniProt P41180); assay: Inhibition of intracellular calcium transients stimulated by extracellular calcium (assay for intracellular free calcium); type: cell-based; conditions: CCL39 fibroblasts stably transfected with human PcaR; Fluo-3 AM; stimulated with calcium 2.5 mM final; read-out: IC50 (nm) (range in which compound fall)
T1 construct: expressed in transfected cells; host or cells: CCL39 fibroblasts (hamster lung fibroblast line), stably transfected
T1 sequence (P41180 20-1078): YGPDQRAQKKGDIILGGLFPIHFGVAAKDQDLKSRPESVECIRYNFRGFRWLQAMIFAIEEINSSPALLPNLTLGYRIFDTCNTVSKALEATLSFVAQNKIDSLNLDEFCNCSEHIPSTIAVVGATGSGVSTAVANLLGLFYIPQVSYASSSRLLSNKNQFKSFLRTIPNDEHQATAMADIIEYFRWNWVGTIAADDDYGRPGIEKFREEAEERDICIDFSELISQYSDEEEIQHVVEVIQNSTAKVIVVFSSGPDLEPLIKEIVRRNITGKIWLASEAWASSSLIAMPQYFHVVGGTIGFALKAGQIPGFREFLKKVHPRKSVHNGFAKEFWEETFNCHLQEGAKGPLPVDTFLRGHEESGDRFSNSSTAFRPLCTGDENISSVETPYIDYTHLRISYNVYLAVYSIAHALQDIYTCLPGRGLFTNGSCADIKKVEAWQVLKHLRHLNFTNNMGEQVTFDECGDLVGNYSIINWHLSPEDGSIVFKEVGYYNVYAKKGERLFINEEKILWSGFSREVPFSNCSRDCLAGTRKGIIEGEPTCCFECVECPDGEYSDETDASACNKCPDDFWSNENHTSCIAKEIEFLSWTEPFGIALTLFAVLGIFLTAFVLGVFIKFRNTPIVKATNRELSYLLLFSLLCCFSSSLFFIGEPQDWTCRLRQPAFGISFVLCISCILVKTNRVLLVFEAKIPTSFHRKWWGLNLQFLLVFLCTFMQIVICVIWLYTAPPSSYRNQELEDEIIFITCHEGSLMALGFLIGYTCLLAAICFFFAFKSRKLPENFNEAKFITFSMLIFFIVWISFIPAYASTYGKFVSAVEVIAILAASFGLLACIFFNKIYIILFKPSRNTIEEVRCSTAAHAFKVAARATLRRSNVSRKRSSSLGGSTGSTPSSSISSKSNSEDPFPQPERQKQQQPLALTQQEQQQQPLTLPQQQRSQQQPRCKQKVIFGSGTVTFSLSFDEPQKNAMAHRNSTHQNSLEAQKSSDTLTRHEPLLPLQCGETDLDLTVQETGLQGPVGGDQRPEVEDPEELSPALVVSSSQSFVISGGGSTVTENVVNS
Experimental: Inhibition of Intracellular Calcium Transients Stimulated by Extracellular Calcium
In the test system, which is described in detail below, the following ranges of IC50 values are found:
Assay for Intracellular Free Calcium:
A method to determine antagonism at the PcaR consists in measuring the inhibition of intracellular calcium transients stimulated by extracellular calcium.
CCL39 fibroblasts stably transfected with human PcaR are seeded at 40,000 cells/well into 96-well Viewplates and incubated for 24 hours. Medium is then removed and replaced with fresh medium containing 2 μM Fluo-3 AM (Molecular Probes, Leiden, The Netherlands), In routine experiments, cells are incubated at 37° C., 5% CO2 for 1 h. Afterwards, plates are washed twice with mHBS and wells are refilled with 100 μl mHBS containing the test compounds. Incubation is continued at room temperature for 15 minutes. To record changes of intracellular free calcium, plates are transferred to fluorescence-imaging plate reader (Molecular Devices, Sunnyvale, Calif., USA). A baseline consisting in 5 measurements of 0.4 seconds each (laser excitation 488 nm) is recorded. Cells are then stimulated with calcium (2.5 mM final), and fluorescence changes recorded over a period of 3 minutes.

First: C#CCOc1ccc2nc(C(=O)c3ccc4c(c3)OCCN4C)nc(-c3ccc(C(C)C)cc3)c2c1 [Example 7, [4-(4-Isopropyl-phenyl)-6-propargyloxy-quinazolin-2-yl]-(4-methyl-3,4-dihydro-2H-benzo[1,4]oxazin-7-yl)-methanone]
Second: C#CCOc1ccc2nc(C(=O)c3ccc4c(c3)N(C)CCO4)nc(-c3ccc(C(C)C)cc3)c2c1 [Example 10, [4-(4-Isopropyl-phenyl)-6-propargyloxy-quinazolin-2-yl]-(4-methyl-3,4-dihydro-2H-benzo[1,4]oxazin-6-yl)-methanone]
The IC50 of the first is lower: 0.2 to 0.5 nM for the first, 1 to 5 nM for the second. The first is the more potent here.

Compared with `C#CCOc1ccc2nc(C(=O)c3ccc4c(c3)OCO4)nc(-c3ccc(C(C)C)cc3)c2c1` [Example 2, Benzo[1,3]dioxol-5-yl-[4-(4-isopropyl-phenyl)-6-propargyloxy-quinazolin-2-yl]-methanone], `C#CCOc1ccc2nc(C(=O)c3ccc4c(c3)OCCO4)nc(-c3ccc(C(C)C)cc3)c2c1` [Example 1, (2,3-Dihydro-benzo[1,4]dioxin-6-yl)-[4-(4-isopropyl-phenyl)-6-propargyloxy-quinazolin-2-yl]-methanone] is higher in IC50: 0.2 to 0.5 nM for the first, 0.5 to 1 nM for the second. The first is the more potent here.

`C#CCOc1ccc2nc(C(=O)c3ccc4c(c3)CCO4)nc(-c3ccc(C(C)C)cc3)c2c1` [Example 3, (2,3-Dihydro-benzofuran-5-yl)-[4-(4-isopropyl-phenyl)-6-propargyloxy-quinazolin-2-yl]-methanone] and `C#CCOc1ccc2nc(C(=O)c3ccc4c(c3)OCC4)nc(-c3ccc(C(C)C)cc3)c2c1` [Example 6, (2,3-Dihydro-benzofuran-6-yl)-[4-(4-isopropyl-phenyl)-6-propargyloxy-quinazolin-2-yl]-methanone] fall in the same range of IC50: 0.2 to 0.5 nM for the first, 0.2 to 0.5 nM for the second.

Compared with `C#CCOc1ccc2nc(C(=O)c3ccc4c(c3)OC=CO4)nc(-c3ccc(C(C)C)cc3)c2c1` [Example 4, Benzo[1,4]dioxin-6-yl-[4-(4-isopropyl-phenyl)-6-propargyloxy-quinazolin-2-yl]-methanone], `C#CCOc1ccc2nc(C(=O)c3ccc4occc4c3)nc(-c3ccc(C(C)C)cc3)c2c1` [Example 8, Benzofuran-5-yl-[4-(4-isopropyl-phenyl)-6-propargyloxy-quinazolin-2-yl]-methanone] is lower in IC50: 0.5 to 1 nM for the first, 0.2 to 0.5 nM for the second. The second is the more potent here.

First: C#CCOc1ccc2nc(C(=O)c3ccc4c(c3)-c3ccccc3C4=O)nc(-c3ccc(C(C)C)cc3)c2c1 [Example 12, 3-[4-(4-Isopropyl-phenyl)-6-propargyloxy-quinazolin-2-carbonyl]-fluoren-9-one]
Second: C#CCOc1ccc2nc(C(=O)c3ccc4c(c3)CCC4)nc(-c3ccc(C(C)C)cc3)c2c1 [Example 5, Indan-5-yl-[4-(4-isopropyl-phenyl)-6-propargyloxy-quinazolin-2-yl]-methanone]
The IC50 of the first is lower: 0.2 to 0.5 nM for the first, 0.5 to 1 nM for the second.

First: C#CCOc1ccc2nc(C(=O)c3nc4ccc(OC)cc4s3)nc(-c3ccc(C(C)C)cc3)c2c1 [Example 11, [4-(4-Isopropyl-phenyl)-6-propargyloxy-quinazolin-2-yl]-(6-methoxy-benzo-thiazol-2-yl)-methanone]
Second: C#CCOc1ccc2nc(C(=O)c3ccc4c(c3)C(C)(C)CCC4(C)C)nc(-c3ccc(C(C)C)cc3)c2c1 [Example 9, [4-(4-Isopropyl-phenyl)-6-propargyloxy-quinazolin-2-yl]-(5,5,8,8-tetramethyl-5,6,7,8-tetrahydro-naphthalen-2-yl)-methanone]
The IC50 of the first is higher: 5 to 10 nM for the first, 1 to 5 nM for the second.
